Experimental data reported in PMC6766518 (Physiological Reports, 2019).
Like-named read-outs stand apart in the source and are kept apart here. Blank lines part the entries; values can stand above or below the compound they belong to.

Tests used:
[1] = system: female C57BL/6J mice (serum Ca^2+ and Pi); assay: Serum Ca2+ and Pi, colorimetric; details: 80 µg/kg/day SC, 30 days; 24 h after last injection; vs vehicle; N = 5 mice/group
Experimental: All animal procedures were reviewed and approved by the Institutional Animal Care and Use Committee at James J. Peters Veterans Affairs Medical Center. […] No peptide injection was performed on the day of animal sacrifice.
Blood was collected and serum was separated as described above. Serum Ca^2+ and Pi concentrations were measured using colorimetric Ca^2+ and Pi assay kits (Cat numbers K380 and K410, respectively) as indicated by the manufacturer (BioVision, Milpitas, CA).
For in vivo studies, five mice/group were used. […] Statistical analyses were performed using GraphPad Prism and Microsoft excel. […] The results are presented as the means ± SD. […] For carrying out multiple group comparisons (all in vivo experiments), one‐way analysis of variance (ANOVA) was performed. When ANOVA indicated unequal means, Tukey's honestly significant difference (HSD) posthoc test was performed to determine which means were different to the level of significance. Statistical significance was considered when P value was less than 0.05 (P < 0.05).
Sera were collected at sacrifice (24 h after last injection) and levels of Ca^2+ and Pi were measured using specific colorimetric assays. (A) Serum Ca^2+ levels. (B) Serum Pi levels. The statistical designation directly listed on the top of each bar indicates the significance level in comparison to vehicle. […] The data in all graph are expressed as the means ± SD. […]

patients = details: cited from earlier work
[2] = molecular target: T1, PTHR1 (MC3T3‐E1 osteoblast cell line) (Mus musculus, UniProt P41593); assay: Intracellular cAMP generation in MC3T3-E1 osteoblast cells; type: cell-based
T1 construct: host or cells: MC3T3-E1 subclone 4
T1 sequence (P41593 27-591): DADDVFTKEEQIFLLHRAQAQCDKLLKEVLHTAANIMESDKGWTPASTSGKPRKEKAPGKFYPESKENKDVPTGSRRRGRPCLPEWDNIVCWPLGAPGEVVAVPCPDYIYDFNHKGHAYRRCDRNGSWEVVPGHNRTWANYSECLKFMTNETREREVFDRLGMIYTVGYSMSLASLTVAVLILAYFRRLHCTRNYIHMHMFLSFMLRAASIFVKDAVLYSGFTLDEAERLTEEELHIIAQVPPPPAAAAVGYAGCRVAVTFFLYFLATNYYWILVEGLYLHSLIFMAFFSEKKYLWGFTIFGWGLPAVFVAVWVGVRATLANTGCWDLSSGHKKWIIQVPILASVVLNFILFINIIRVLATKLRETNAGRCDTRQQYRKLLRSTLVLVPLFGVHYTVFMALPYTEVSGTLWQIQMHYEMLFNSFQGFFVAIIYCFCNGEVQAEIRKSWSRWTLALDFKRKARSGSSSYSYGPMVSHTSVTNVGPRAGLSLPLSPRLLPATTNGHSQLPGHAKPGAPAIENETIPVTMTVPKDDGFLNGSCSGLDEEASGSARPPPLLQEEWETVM

PTHR1 = molecular target: T2, PTHR1 (Homo sapiens, UniProt Q03431); assay: PathHunter eXpress PTHR1 CHO-K1 β-arrestin GPCR assay (β-arrestin recruitment); type: cell-based; details: CHO‐K1 cells; abaloparatide vs teriparatide; P = 0.02
T2 sequence (Q03431 27-593): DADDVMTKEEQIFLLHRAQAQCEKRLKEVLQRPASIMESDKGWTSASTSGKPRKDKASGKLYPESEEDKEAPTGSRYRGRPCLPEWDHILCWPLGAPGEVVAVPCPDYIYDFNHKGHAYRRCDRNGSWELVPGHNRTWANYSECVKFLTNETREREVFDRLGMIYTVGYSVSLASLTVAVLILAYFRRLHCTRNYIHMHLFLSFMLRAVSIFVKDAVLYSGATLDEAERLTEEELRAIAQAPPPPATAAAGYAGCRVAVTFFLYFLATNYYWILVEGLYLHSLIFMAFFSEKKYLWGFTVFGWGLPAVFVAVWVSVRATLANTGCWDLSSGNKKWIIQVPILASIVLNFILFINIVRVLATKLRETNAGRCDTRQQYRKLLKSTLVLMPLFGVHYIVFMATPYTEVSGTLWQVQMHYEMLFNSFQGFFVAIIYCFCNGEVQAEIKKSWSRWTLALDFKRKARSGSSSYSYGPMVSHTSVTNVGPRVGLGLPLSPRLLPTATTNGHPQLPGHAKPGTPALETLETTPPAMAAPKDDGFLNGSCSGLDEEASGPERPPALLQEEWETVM

[3] = system: patients with osteoporosis; details: ref Neer et al. 2001, cited from earlier work
Excerpt: Human life expectancy has increased, thanks to the advances in medical research and the subsequent improvement in health care. As a result, there is a growing demand for better management of the common illnesses of the increasing elderly population. One of these illnesses, osteoporosis, is a common world‐wide bone disorder and a major public health threat for 44 million Americans, 68% of them being women. Osteoporosis accounts for an estimated 1.5 million fractures in the US every year costing over 14 billion dollars. Furthermore, the National Osteoporosis Foundation estimates that 50% of wome ...

RANKL gene expression = details: in vivo and in vitro; ref Ricarte et al. 2018; cited from earlier work
Excerpt: PTHR1 is a member of subclass B seven transmembrane spanning GTP‐binding protein (G‐protein) coupled receptors (GPCR) that activates multiple G‐proteins, primarily the Gs but also Gq/11, Gi, and G12/13 G‐proteins. As a result, PTHR1 activation stimulates multiple downstream pathways and events such as Gs/adenylate cyclase/cAMP/protein kinase A, Gq11/phospholipase C/diacylglycerol‐inositol‐triphosphate‐Ca/protein kinase C, phospholipase D, and Src/β‐arrestin/MAPK pathways and PTHR1 phosphorylation and internalization (Abou‐Samra et al. 1992; Sneddon et al. 2000; Tawfeek et al. 2001; Tawfeek et ...

Elevation in serum Pi [1]: 50%
Compound: CC[C@H](C)[C@H](NC(=O)[C@H](CCC(=O)O)NC(=O)[C@H](CO)NC(=O)[C@@H](NC(=O)[C@@H](N)CO)C(C)C)C(=O)N[C@@H](CCC(N)=O)C(=O)N[C@@H](CC(C)C)C(=O)N[C@@H](CCSC)C(=O)N[C@@H](Cc1cnc[nH]1)C(=O)N[C@@H](CC(N)=O)C(=O)N[C@@H](CC(C)C)C(=O)NCC(=O)N[C@@H](CCCCN)C(=O)N[C@@H](Cc1cnc[nH]1)C(=O)N[C@@H](CC(C)C)C(=O)N[C@@H](CC(N)=O)C(=O)N[C@@H](CO)C(=O)N[C@@H](CCSC)C(=O)N[C@@H](CCC(=O)O)C(=O)N[C@@H](CCCN=C(N)N)C(=O)N[C@H](C(=O)N[C@@H](CCC(=O)O)C(=O)N[C@@H](Cc1c[nH]c2ccccc12)C(=O)N[C@@H](CC(C)C)C(=O)N[C@@H](CCCN=C(N)N)C(=O)N[C@@H](CCCCN)C(=O)N[C@@H](CCCCN)C(=O)N[C@@H](CC(C)C)C(=O)N[C@@H](CCC(N)=O)C(=O)N[C@@H](CC(=O)O)C(=O)N[C@H](C(=O)N[C@@H](Cc1cnc[nH]1)C(=O)N[C@@H](CC(N)=O)C(=O)N[C@@H](Cc1ccccc1)C(=O)O)C(C)C)C(C)C [teriparatide]
Patients with hypercalcemia (patients; transient and infrequent event, ref Miller et al. 2018): 6.4%

EC50 ([2]; 0.01–100 nmol/L, 40 min at 37°C, 0.5 mmol/L IBMX, cAMP competitive ELISA, mean ± SD, three independent experiments, p = 0.02 between analogs, read-out: EC50 for cAMP formation): 0.3 ± 0.03 nM
Decrease in EC50 value for cAMP formation compared to teriparatide ([2]; abaloparatide vs teriparatide, p = 0.02): 2.3 fold
EC50 for β‐arrestin recruitment lower than that of teriparatide (PTHR1): 1.6 fold
Compound: CC[C@H](C)[C@H](NC(=O)[C@H](CO)NC(=O)[C@H](CCCCN)NC(=O)CNC(=O)[C@H](CCCCN)NC(=O)[C@H](CC(=O)O)NC(=O)[C@H](Cc1cnc[nH]1)NC(=O)[C@H](CC(C)C)NC(=O)[C@H](CC(C)C)NC(=O)[C@H](CCC(N)=O)NC(=O)[C@H](Cc1cnc[nH]1)NC(=O)[C@H](CCC(=O)O)NC(=O)[C@H](CO)NC(=O)[C@@H](NC(=O)[C@H](C)N)C(C)C)C(=O)N[C@@H](CCC(N)=O)C(=O)N[C@@H](CC(=O)O)C(=O)N[C@@H](CC(C)C)C(=O)N[C@@H](CCCNC(=N)N)C(=O)N[C@@H](CCCNC(=N)N)C(=O)N[C@@H](CCCNC(=N)N)C(=O)N[C@@H](CCC(=O)O)C(=O)N[C@@H](CC(C)C)C(=O)N[C@@H](CC(C)C)C(=O)N[C@@H](CCC(=O)O)C(=O)N[C@@H](CCCCN)C(=O)N[C@@H](CC(C)C)C(=O)N[C@@H](CC(C)C)C(=O)NC(C)(C)C(=O)N[C@@H](CCCCN)C(=O)N[C@@H](CC(C)C)C(=O)N[C@@H](Cc1cnc[nH]1)C(=O)N[C@H](C(=O)N[C@@H](C)C(N)=O)[C@@H](C)O [abaloparatide]
Patients with hypercalcemia (patients; human, in vivo): 3.4%

Compound: PTH: PTH as administered in cited studies; context points to the amino‐terminal fragment PTH1‐34 (SVSEIQLMHNLGKHLNSMERVEWLRKKLQDVHNF; Parathyroid hormone; UniProt P01270 32-65, looked up, fragment)
Increase in BMD in spine and femur versus bisphosphonates ([3]; men and women with osteoporosis): more efficiently than treatment with bisphosphonates
Decrease in risk of vertebral and nonvertebral fractures [3]: more than 50%
RANKL gene expression (RANKL gene expression): larger RANKL gene expression in vivo and in vitro
